# Measured values reported in article PMC8140080, “The lexicon of antimicrobial peptides: a complete set of arginine and tryptophan sequences” (Communications Biology, 2021).
# Where a SMILES comes first, the peptide text is derived from it.
# Assays:
# S. aureus ATCC 6538 = type: cell-based, Staphylococcus aureus
# Experimental: (§1) S. aureus ATCC 6538 and C. albicans ATCC 10231 were obtained from Oxoid (Basingstoke, UK), and P. aeruginosa PAO1 donated by the University of Nottingham. Bacteria were routinely grown using Mueller–Hinton broth or agar and yeast was grown using Sabaraud Dextrose broth or agar. Cultures were incubated aerobically on agar at 37 °C for 20 h or under the same conditions in broth with shaking at 200 rpm.
# (§2) Planktonic cultures were obtained by inoculating single colonies from 18–20 h old agar cultures into 10 ml of sterile broth, followed by 20-h incubation. S. aureus and P. aeruginosa assays were performed using Mueller–Hinton broth and agar and C. albicans assays were performed using Sabaraud Dextrose broth and agar. […]
# (§3) Peptide stock solutions of 800 µM were prepared by dissolving solid peptides (provided in pre-weighed aliquots by the supplier) in phosphate buffer solution (PBS) containing 5% (v/v) DMSO. […] Each polystyrene plate was then aerobically incubated at 37 °C for 18–20 h without shaking, before measuring OD600 using a spectrophotometer plate reader (Nanostar; BMG Labtech, Ayelsbury). […] The mean IC50 for each peptide was calculated from the results of four independent experiments, with a single technical replicate each. Specific activity was calculated by plotting IC50 (µM) multiplied by peptide length, against peptide length. […]
# P. aeruginosa [1] = conditions: read-out: minimum IC50; cited from earlier work
# From the text: (§4) A second general conclusion is that overall activity increases consistently with length. […] We previously reported variable activity in a group of cationic and hydrophobic AMPs based on apoE-derived AMPs, and a range of similar peptides we tested.
# [2] = Transmission electron microscopy of peptide aggregates; type: physicochemical; conditions: single independent experiment
# Experimental: Peptides were prepared at 800 µM in PBS with 5% v/v DMSO, and any excessively large aggregates or dust removed by centrifugation (2000 × g, 5 min). Further dilutions (80 µM) were prepared in PBS with 5% v/v DMSO, and the latter diluent was also used to prepare control (peptide-free) grids. Carbon film 200 mesh copper transmission electron microscope (TEM) grids (Agar Scientific Ltd. Stanstead, UK) were initially functionalized using a glow discharger (K100X; Quorum technologies Ltd. Laughton, UK) under a current of 25 mA for 30 sec. These were then placed onto 10 µl droplets of each test sample solution for 1 min, and then transferred onto 10 µl droplets of 1% w/v uranyl acetate for a further minute. Excess solution was removed using filter paper and sample grids were air dried for at least 1 h. Grids were imaged using a Tecnai™ T12 BioTwin TEM (FEI Company. Hillsboro, USA). Images were cropped and scale bars were added using ImageJ. Images are representative of single independent experiments.
# P. aeruginosa [3] = assay: Atomic force microscopy of peptide-treated bacteria; type: cell-based, Pseudomonas aeruginosa; conditions: 100 µM peptide, 2 min exposure, 37 °C; n = 6 cells
# Experimental: A suspension of P. aeruginosa at ~10^7 CFU/ml in PBS was prepared as for SEM; 500 μl of this suspension was incubated with 500 μl of […] peptide (200 μM in PBS; 5% v/v DMSO) at 37 °C with shaking at 200 rpm for 45 min. As a negative control, 500 μl bacterial suspension was incubated with PBS containing 5% v/v DMSO. Samples of 50 μl were withdrawn from the suspensions at 2, 15 and 45 min for imaging by AFM. Chips were prepared by adsorbing 50 μl of poly-L-lysine onto a cleaved mica chip for 3 min. Excess poly-L-lysine was washed off by adding 10 × 200 μl aliquots of MilliQ water and excess water was removed using filter paper. Test samples were deposited onto the chips and left to adhere for 1-2 min, before further washing using 10 × 200 μl aliquots of MilliQ water, blotting off excess with filter paper, before leaving chips to air-dry overnight. Chips were scanned using a Bruker multimode 8 (Bruker, Billerica, USA) in ScanAsyst air mode. All images were taken at a resolution of 512 points per dimension unless stated otherwise, and are representative of single technical experiments. Images obtained were processed and different length measurements were performed using Gwyddion version 2.48 (http://gwyddion.net/). Measurements were taken of the long axis length, short axis length and maximum vertical height of the bacterium above the chip surface. […]
# P. aeruginosa [4] = assay: Scanning electron microscopy of peptide-treated bacteria; type: cell-based, Pseudomonas aeruginosa; conditions: 1 h, 37 °C, ~10^7 CFU/ml in PBS, three independent experiments
# S. aureus = conditions: read-out: minimum IC50; cited from earlier work
# From the text: as §4
# P. aeruginosa PAO1 = assay: Antimicrobial assay (IC50 and MBC), broth microdilution; type: cell-based, Pseudomonas aeruginosa; conditions: Fig. 1a; range assayed 0.8-400 µM; b35 words are general, printed in the P. aeruginosa morphology study
# Experimental: as §1, §2, §3
molecule,measurement,setting,value
CC(=O)N[C@@H](Cc1c[nH]c2ccccc12)C(=O)N[C@@H](Cc1c[nH]c2ccccc12)C(=O)N[C@@H](Cc1c[nH]c2ccccc12)C(=O)N[C@@H](CCCNC(=N)N)C(=O)N[C@@H](CCCNC(=N)N)C(=O)N[C@@H](CCCNC(=N)N)C(=O)N[C@@H](Cc1c[nH]c2ccccc12)C(N)=O [WWWRRRW] (Ac-WWWRRRW-NH2),IC50,S. aureus ATCC 6538; ATCC 6538,2.9 ± 0.3 µM
"WRKWRKRWWWRKWRKRWW [ApoEdpL-W, 18mer apoE-derived antimicrobial peptide composed of W, R and K, from the authors' earlier work]",IC50,P. aeruginosa [1],7 µM
WRWWWWW [library heptapeptide forming substantial aggregates at 800 µM; C-terminal amidation and N-terminal acetylation],visible aggregates by TEM,[2]; 80 µM in PBS with 5% v/v DMSO,not
same,visible aggregates by TEM,[2]; 800 µM in PBS with 5% v/v DMSO,Substantial visible aggregates were present
WWWRRRR [library heptapeptide of W and R; C-terminal amidation and N-terminal acetylation carried out for all peptides],increase of IC50 relative to WWWRRRW,"S. aureus ATCC 6538; one residue changed, organism not given",65 fold
RWWRWWR [C-terminal amidation and N-terminal acetylation],bacterial height by AFM,P. aeruginosa [3],doubled
same,mean bacterial width by AFM,P. aeruginosa [3],decreased by a third
same,bacterial morphology by SEM,P. aeruginosa [4]; 80 µM peptide,"formation of spheroid objects on the surface of the bacteria, indicative of membrane blebbing"
same,bacterial morphology by SEM,P. aeruginosa [4]; 400 µM peptide,dramatic reduction in the number of intact bacteria
same,IC50,S. aureus,14 µM
same,inhibitory activity (in words),P. aeruginosa PAO1,one of the most active
RRRRRRR [C-terminal amidation and N-terminal acetylation carried out for all peptides],bacterial morphology by SEM,P. aeruginosa [4]; 80 µM peptide,no discernible change in morphology
same,bacterial morphology by SEM,P. aeruginosa [4]; 400 µM peptide,no discernible change in morphology
same,inhibitory activity (in words),P. aeruginosa PAO1,inactive
"RRWYRWWR [Y-containing octapeptide similar to RWWRWWR, from the authors' earlier work]",IC50,P. aeruginosa [1],21 µM
